According to PubChem BioAssay (NCI):
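All cell lines were grown in 96-well plates and treated with compound for 48 hours. GI50 is the concentration that inhibits growth by half. TGI marks complete inhibition of growth.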

Experiments:
Test in all cases: DTP human tumour cell line panel, 48 h
HOP-62 NSCLC = tested on: HOP-62 NSCLC
NCI-H23 lung = tested on: NCI-H23 lung
MALME-3M melanoma = tested on: MALME-3M melanoma
ACHN renal = tested on: ACHN renal
RPMI-8226 leukemia = tested on: RPMI-8226 leukemia
HL-60(TB) leukemia = tested on: HL-60(TB) leukemia
UACC-257 melanoma = tested on: UACC-257 melanoma
HCT-15 colon = tested on: HCT-15 colon
MCF7 breast = tested on: MCF7 breast
MDA-MB-435 = tested on: MDA-MB-435
SN12C renal = tested on: SN12C renal
LOX IMVI melanoma = tested on: LOX IMVI melanoma
U251 CNS = tested on: U251 CNS
IGROV1 ovarian = tested on: IGROV1 ovarian
MDA-N = tested on: MDA-N
786-0 renal = tested on: 786-0 renal
MOLT-4 leukemia = tested on: MOLT-4 leukemia
DU-145 prostate = tested on: DU-145 prostate
OVCAR-5 ovarian = tested on: OVCAR-5 ovarian
SNB-75 CNS = tested on: SNB-75 CNS
RXF 393 renal = tested on: RXF 393 renal
SNB-19 CNS = tested on: SNB-19 CNS
SF-295 CNS = tested on: SF-295 CNS
UACC-62 melanoma = tested on: UACC-62 melanoma
OVCAR-3 ovarian = tested on: OVCAR-3 ovarian
SK-MEL-28 melanoma = tested on: SK-MEL-28 melanoma
SF-268 CNS = tested on: SF-268 CNS
HT29 colon = tested on: HT29 colon
NCI-H460 lung = tested on: NCI-H460 lung
OVCAR-8 ovarian = tested on: OVCAR-8 ovarian
SK-OV-3 ovarian = tested on: SK-OV-3 ovarian
NCI-H226 lung = tested on: NCI-H226 lung
KM12 colon = tested on: KM12 colon
OVCAR-4 ovarian = tested on: OVCAR-4 ovarian
K-562 leukemia = tested on: K-562 leukemia
HCT-116 colon = tested on: HCT-116 colon
EKVX NSCLC = tested on: EKVX NSCLC
SR leukemia = tested on: SR leukemia
HS 578T breast = tested on: HS 578T breast
M14 melanoma = tested on: M14 melanoma
COLO 205 colon = tested on: COLO 205 colon
TK-10 renal = tested on: TK-10 renal
HOP-92 NSCLC = tested on: HOP-92 NSCLC
CAKI-1 renal = tested on: CAKI-1 renal
SW-620 colon = tested on: SW-620 colon
NCI/ADR-RES ovarian = tested on: NCI/ADR-RES ovarian
MDA-MB-231 breast = tested on: MDA-MB-231 breast
A549 NSCLC = tested on: A549 NSCLC
UO-31 renal = tested on: UO-31 renal
SK-MEL-2 melanoma = tested on: SK-MEL-2 melanoma
CCRF-CEM leukemia = tested on: CCRF-CEM leukemia
SK-MEL-5 melanoma = tested on: SK-MEL-5 melanoma
PC-3 prostate = tested on: PC-3 prostate
SF-539 CNS = tested on: SF-539 CNS
NCI-H522 lung = tested on: NCI-H522 lung
A498 renal = tested on: A498 renal
T-47D breast = tested on: T-47D breast
BT-549 breast = tested on: BT-549 breast
HCC-2998 colon = tested on: HCC-2998 colon

CC(Nc1ncc2c(n1)-c1ccccc1OC2)C(=O)O (stereo not given)
TGI (HOP-62 NSCLC): > 100 µM | TGI (NCI-H23 lung): > 100 µM | TGI (MALME-3M melanoma): > 100 µM | TGI (ACHN renal): > 100 µM | TGI (RPMI-8226 leukemia): > 100 µM | TGI (HL-60(TB) leukemia): 26.1 µM | TGI (UACC-257 melanoma): > 100 µM | TGI (HCT-15 colon): > 100 µM | TGI (MCF7 breast): > 100 µM | TGI (MDA-MB-435): > 100 µM | TGI (SN12C renal): > 100 µM | TGI (LOX IMVI melanoma): > 100 µM | TGI (U251 CNS): > 100 µM | TGI (IGROV1 ovarian): > 100 µM | TGI (MDA-N): > 100 µM | TGI (786-0 renal): > 100 µM | TGI (MOLT-4 leukemia): > 100 µM | TGI (DU-145 prostate): > 100 µM | TGI (OVCAR-5 ovarian): > 100 µM | TGI (SNB-75 CNS): > 100 µM | TGI (RXF 393 renal): > 100 µM | TGI (SNB-19 CNS): > 100 µM | TGI (SF-295 CNS): > 100 µM | TGI (UACC-62 melanoma): > 100 µM | TGI (OVCAR-3 ovarian): > 100 µM | TGI (SK-MEL-28 melanoma): > 100 µM | TGI (SF-268 CNS): > 100 µM | TGI (HT29 colon): > 100 µM | TGI (NCI-H460 lung): > 100 µM | TGI (OVCAR-8 ovarian): > 100 µM | TGI (SK-OV-3 ovarian): > 100 µM | TGI (NCI-H226 lung): > 100 µM | TGI (KM12 colon): > 100 µM | TGI (OVCAR-4 ovarian): > 100 µM | TGI (K-562 leukemia): > 100 µM | TGI (HCT-116 colon): > 100 µM | TGI (EKVX NSCLC): > 100 µM | TGI (SR leukemia): > 100 µM | TGI (HS 578T breast): > 100 µM | TGI (M14 melanoma): > 100 µM | TGI (COLO 205 colon): > 100 µM | TGI (TK-10 renal): > 100 µM | TGI (HOP-92 NSCLC): > 100 µM | TGI (CAKI-1 renal): > 100 µM | TGI (SW-620 colon): > 100 µM | TGI (NCI/ADR-RES ovarian): > 100 µM | TGI (MDA-MB-231 breast): > 100 µM | TGI (A549 NSCLC): > 100 µM | TGI (UO-31 renal): > 100 µM | TGI (SK-MEL-2 melanoma): > 100 µM | TGI (CCRF-CEM leukemia): > 100 µM | TGI (SK-MEL-5 melanoma): > 100 µM | TGI (PC-3 prostate): > 100 µM | TGI (SF-539 CNS): > 100 µM

NS(=O)(=O)c1ccc(Nc2cc(-c3cccc(O)c3)[nH]n2)cc1
GI50 (NCI-H522 lung): 22.6 µM | TGI (NCI-H522 lung): > 25 µM | GI50 (HOP-62 NSCLC): > 25 µM | TGI (HOP-62 NSCLC): > 25 µM | GI50 (NCI-H23 lung): > 25 µM | TGI (NCI-H23 lung): > 25 µM | GI50 (MALME-3M melanoma): > 25 µM | TGI (MALME-3M melanoma): > 25 µM | GI50 (ACHN renal): > 25 µM | TGI (ACHN renal): > 25 µM | GI50 (RPMI-8226 leukemia): > 25 µM | TGI (RPMI-8226 leukemia): > 25 µM | GI50 (HL-60(TB) leukemia): > 25 µM | TGI (HL-60(TB) leukemia): > 25 µM | GI50 (UACC-257 melanoma): > 25 µM | TGI (UACC-257 melanoma): > 25 µM | GI50 (HCT-15 colon): > 25 µM | TGI (HCT-15 colon): > 25 µM | GI50 (MCF7 breast): > 25 µM | TGI (MCF7 breast): > 25 µM | GI50 (MDA-MB-435): > 25 µM | TGI (MDA-MB-435): > 25 µM | GI50 (SN12C renal): > 25 µM | TGI (SN12C renal): > 25 µM | GI50 (LOX IMVI melanoma): > 25 µM | TGI (LOX IMVI melanoma): > 25 µM | GI50 (U251 CNS): 24.4 µM | TGI (U251 CNS): > 25 µM | GI50 (IGROV1 ovarian): > 25 µM | TGI (IGROV1 ovarian): > 25 µM | GI50 (786-0 renal): > 25 µM | TGI (786-0 renal): > 25 µM | GI50 (MOLT-4 leukemia): 13.4 µM | TGI (MOLT-4 leukemia): > 25 µM | GI50 (DU-145 prostate): > 25 µM | TGI (DU-145 prostate): > 25 µM | GI50 (OVCAR-5 ovarian): > 25 µM | TGI (OVCAR-5 ovarian): > 25 µM | GI50 (SNB-75 CNS): 24.5 µM | TGI (SNB-75 CNS): > 25 µM | GI50 (RXF 393 renal): > 25 µM | TGI (RXF 393 renal): > 25 µM | GI50 (SNB-19 CNS): > 25 µM | TGI (SNB-19 CNS): > 25 µM | GI50 (SF-295 CNS): > 25 µM | TGI (SF-295 CNS): > 25 µM | GI50 (UACC-62 melanoma): > 24.2 µM | TGI (UACC-62 melanoma): > 25 µM | GI50 (A498 renal): > 25 µM | TGI (A498 renal): > 25 µM | GI50 (OVCAR-3 ovarian): 16.2 µM | TGI (OVCAR-3 ovarian): > 25 µM | GI50 (SK-MEL-28 melanoma): > 25 µM | TGI (SK-MEL-28 melanoma): > 25 µM | GI50 (SF-268 CNS): > 25 µM | TGI (SF-268 CNS): > 25 µM | GI50 (HT29 colon): > 25 µM | TGI (HT29 colon): > 25 µM | GI50 (NCI-H460 lung): > 25 µM | TGI (NCI-H460 lung): > 25 µM | GI50 (T-47D breast): 10 µM | TGI (T-47D breast): > 25 µM | GI50 (BT-549 breast): > 24.1 µM | TGI (BT-549 breast): > 25 µM | GI50 (HCC-2998 colon): > 25 µM | TGI (HCC-2998 colon): > 25 µM | GI50 (OVCAR-8 ovarian): > 22.6 µM | TGI (OVCAR-8 ovarian): > 25 µM | GI50 (SK-OV-3 ovarian): > 25 µM | TGI (SK-OV-3 ovarian): > 25 µM | GI50 (NCI-H226 lung): > 25 µM | TGI (NCI-H226 lung): > 25 µM | GI50 (KM12 colon): > 23.7 µM | TGI (KM12 colon): > 25 µM | GI50 (OVCAR-4 ovarian): 13.5 µM | TGI (OVCAR-4 ovarian): > 25 µM | GI50 (K-562 leukemia): > 25 µM | TGI (K-562 leukemia): > 25 µM | GI50 (HCT-116 colon): > 25 µM | TGI (HCT-116 colon): > 25 µM | GI50 (EKVX NSCLC): > 25 µM | TGI (EKVX NSCLC): > 25 µM | GI50 (SR leukemia): 24.2 µM | TGI (SR leukemia): > 25 µM | GI50 (HS 578T breast): > 25 µM | TGI (HS 578T breast): > 25 µM | GI50 (M14 melanoma): > 25 µM | TGI (M14 melanoma): > 25 µM | GI50 (COLO 205 colon): > 25 µM | TGI (COLO 205 colon): > 25 µM | GI50 (TK-10 renal): > 25 µM | TGI (TK-10 renal): > 25 µM | GI50 (HOP-92 NSCLC): 10.2 µM | TGI (HOP-92 NSCLC): > 25 µM | GI50 (CAKI-1 renal): > 25 µM | TGI (CAKI-1 renal): > 25 µM | GI50 (SW-620 colon): > 25 µM | TGI (SW-620 colon): > 25 µM | GI50 (NCI/ADR-RES ovarian): > 25 µM | TGI (NCI/ADR-RES ovarian): > 25 µM | GI50 (MDA-MB-231 breast): 18 µM | TGI (MDA-MB-231 breast): > 25 µM | GI50 (A549 NSCLC): > 25 µM | TGI (A549 NSCLC): > 25 µM | GI50 (UO-31 renal): > 25 µM | TGI (UO-31 renal): > 25 µM | GI50 (SK-MEL-2 melanoma): > 25 µM | TGI (SK-MEL-2 melanoma): > 25 µM | GI50 (CCRF-CEM leukemia): 8.04 µM | TGI (CCRF-CEM leukemia): > 25 µM | GI50 (SK-MEL-5 melanoma): 14.8 µM | TGI (SK-MEL-5 melanoma): > 25 µM | GI50 (PC-3 prostate): > 25 µM | TGI (PC-3 prostate): > 25 µM | GI50 (SF-539 CNS): 20.5 µM | TGI (SF-539 CNS): > 25 µM
